Values quoted from earlier work in patent US20170326147A1, “INHIBITING BLOOD PRESSURE DROP IN THE TREATMENT OF ERECTILE DYSFUNCTION” (FORMUREX, INC., priority 2014, published 2017).
Counter-ions that a name gives are not always drawn.

Tests used:
plasma proteins = conditions: independent of total drug concentration

Structure (SMILES) | bound to plasma proteins (plasma proteins) | Tmax average, fasting subjects (fasting) | delay of mean Tmax by food in the stomach (fed) | bioavailability (mean absolute), oral administration (oral, absorption through the digestive tract)
CCCc1nn(C)c2c(=O)[nH]c(-c3cc(S(=O)(=O)N4CCNCC4)ccc3OCC)nc12 [N-desmethyl metabolite, N-desmethyl sildenafil] | approximately 96% | – | – | –
CCCc1nn(C)c2c(=O)[nH]c(-c3cc(S(=O)(=O)N4CCN(C)CC4)ccc3OCC)nc12 [sildenafil citrate] | approximately 96% | about 1 hr | about 1.1 hr | about 40%
